Data on 15 compounds can be found in PubChem BioAssay (NCI).

Structures are written as SMILES. “And” between values parts separate entries of the source, which are not always exact repeats. Equal entries are not always repeated.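 Cells were grown in 96-well plates and exposed to each compound for 48 hours at five concentrations; endpoints were interpolated linearly between bracketing concentrations, or set to the highest concentration if not reached. At the GI50, growth is halved. TGI is the concentration that stops growth completely.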

What all share (assay): growth of human tumour cells (NCI), 48 h
The test system of experiment [1] is DLD-1 colon.
Experiment [2] concerns DMS 114 small cell lung.
The subject of experiment [3] is KM12 colon.
In experiment [4] the test system is LXFL 529 NSCLC.
Experiment [5] deals with SNB-78 CNS.
The subject of experiment [6] is DU-145 prostate.
The test system of experiment [7] is MDA-MB-435.
For experiment [8], the system named is NCI/ADR-RES ovarian.
The subject of experiment [9] is T-47D breast.

For `CC1(C)CC23C(=O)N(c4ccccc4)C(=Nc4ccccc4)NC2=CC(C#N)=C(C#N)C3O1` (configuration not stated), the TGI in experiment [1], in experiment [2], in experiment [3], in [4] and in experiment [5] was greater than 100 µM each time.

On to `CS(=O)(=O)CCNCc1ccc(-c2ccc3ncnc(Nc4ccc(OCc5ccccc5)c(C(F)(F)F)c4)c3c2)o1`, for which the GI50 is 10.3 µM in [6]; 5.48 µM in [3]; 4.8 µM in experiment [7]; 7.03 µM in experiment [8]; 6.76 µM in [9]. For the same compound, the TGI in experiment [6] is greater than 25 µM; in experiment [3] it was 11.3 µM; in experiment [7], 10.5 µM; in [8], greater than 25 µM; in [9] it was 18.9 µM.

For the compound `CC(C#N)c1cn(S(=O)(=O)c2ccccc2)c2ccccc12` (configuration not stated), the TGI in experiment [1], in experiment [2], in experiment [3] and in [4] was greater than 100 µM throughout.

`O=c1oc2ccc(Cl)cc2c(=O)n1-c1ccc(Cl)cc1F`: the GI50 was 0.846 µM in [6]; 1.52 µM in [3]; 0.572 µM in experiment [7]; 0.532 µM in experiment [8]; 0.36 µM in [9]. The TGI came to 24.7 µM in experiment [6]; 4.5 µM in [3]; 4.86 µM in [7]; 3.79 µM in experiment [8]; 2.2 µM in [9].

On to `CN(C)CC/C=C1\c2ccccc2Sc2ccc(Cl)cc21`, for which the GI50 in experiment [6] was 6.38 µM; in [3] it was 2.54 µM; in [7] it was 1.77 µM; in experiment [8] it was 2.42 µM; in experiment [9] it was 1.46 µM. Moreover, the TGI is 18.6 µM and 29.7 µM in experiment [6]; 6.08 µM and 37.9 µM in [3]; 4.03 µM and 23.1 µM in [7]; 8.24 µM and 30.8 µM in [8].

`COc1ccc(OC)c(/C=C/c2nnc(Nc3ccc(Cl)cc3)o2)c1`: the GI50 in [6] was 11.4 µM; in experiment [3], 17.4 µM; in experiment [7] it was 37 µM; in [8], 7.62 µM; in [9], 2.54 µM. Besides, the TGI in experiment [6] is 36.9 µM; in [3], greater than 100 µM; in experiment [7], greater than 100 µM; in experiment [8] it was 98.1 µM; in experiment [9], greater than 100 µM.

For the compound `O=C(O)C1C2C=CC(O2)C1C(=O)Nc1ccccc1` (configuration not stated), the TGI in experiment [6], in experiment [3], in experiment [7], in experiment [8] and in [9] was greater than 100 µM in each case.

Turning to `CS(=O)(=O)c1ccc(N/N=C/c2c(-c3ccc(S(C)(=O)=O)cc3)[nH]c3ccc(F)cc23)cc1`, the GI50 was 2.75 µM in experiment [6]; 2.84 µM in [3]; 3.12 µM in [7]; greater than 50 µM in experiment [8]; 1.41 µM in experiment [9]. The TGI in [6], in experiment [3], in [7], in [8] and in experiment [9] was greater than 50 µM each time.

Take `CNC(=O)c1ccc(Nc2ncc(C(F)(F)F)c(NCc3nccnc3N(C)S(C)(=O)=O)n2)cc1`: the GI50 in experiment [6] is 2.6 µM and 2.1 µM and 2.75 µM; in [3] it was 0.383 µM and 0.309 µM and 0.307 µM; in [7] it was 3.55 µM and 3.05 µM and 2.67 µM; in experiment [8] it was 8.27 µM and 8.53 µM; in experiment [9] it was 3.47 µM and 3.46 µM and 2.9 µM. In addition, the TGI is > 10 µM and 10.9 µM and 15.9 µM in experiment [6]; > 10 µM and 6.33 µM and 11.3 µM in experiment [3]; > 10 µM and 13.6 µM and 15.2 µM in [7]; > 10 µM and 25.9 µM and 27.1 µM in experiment [8]; > 10 µM and 12.5 µM and 10.4 µM in [9].

With `CCOC(=O)[C@H](CSSc1ncnc2cc[nH]c12)NC(=O)[C@@H](C)c1ccc2cc(OC)ccc2c1`, the GI50 was 0.213 µM in experiment [6]; 1.61 µM in experiment [3]; 0.355 µM in experiment [7]; 0.687 µM in experiment [8]; 0.0375 µM in [9]. For the same compound, the TGI in [6], in [3], in experiment [7], in experiment [8] and in [9] was greater than 100 µM each time.

Regarding `CC(=O)[CH-]C(=O)c1ccccc1.CC(=O)[CH-]C(=O)c1ccccc1.O=C([O-])C[O-].O=C([O-])C[O-].[Ti+4]`, in experiment [3], the GI50 was 21.7 µM and the TGI came to 69.2 µM. In addition, in [4], the GI50 was 33.5 µM and the TGI is greater than 100 µM.

Turning to `C#C[C@@]1(O)[C@@H](CO)O[C@@H](n2cc(Cl)c3c(N)ncnc32)[C@@H]1O`, the GI50 was 0.131 µM in [6]; 0.142 µM in experiment [3]; 0.166 µM in [7]; 0.0546 µM in [8]; 0.0573 µM in experiment [9]. The TGI in experiment [6] was greater than 52 µM; in [3], greater than 100 µM; in experiment [7], 2.4 µM; in experiment [8], 0.777 µM; in experiment [9] it was 0.489 µM.

Turning to `COc1ccc(-c2coc3ncnc(N)c23)cc1`, the GI50 in [6], in experiment [3], in experiment [7], in experiment [8] and in experiment [9] was greater than 25 µM each time. The TGI in experiment [6], in experiment [3], in experiment [7], in [8] and in experiment [9] was greater than 25 µM throughout.

In the case of `O=C(O)C(=O)Cc1ccc2c(c1)OCO2`, the TGI in [6], in experiment [3], in [7], in [8] and in [9] was greater than 100 µM each time.

`COc1ccc(C(=O)/C=C/c2cc3ccccc3[nH]c2=O)cc1`: the GI50 in experiment [6] is 17.8 µM; in experiment [3], 16.5 µM; in [7] it was 21.2 µM; in [8] it was 18.9 µM; in experiment [9] it was 18.8 µM. Also, the TGI is 41.9 µM in [6]; 28.7 µM in experiment [3]; greater than 55.8 µM in [7]; 42.9 µM in experiment [8]; greater than 100 µM in experiment [9].
